Experimental data as given in patent US11382328B2, “Rapid drug discovery methods for pathogen inactivation” (priority 2019, dated 2022).

System: E. coli strain W3110
Experiment: Synergy assays: Biolog chemical sensitivity panels with Group IB metal, coefficient of drug interaction (CDI) from relative growth
Format: cell-based
Settings: for CDI (coefficient of drug interaction), copper mixed with biocide: Copper (mM) section; for CDI (coefficient of drug interaction), gold + biocide: Gold (μM)
[1] = 1st of 3 copper concentrations (value not shown), 4th of four biocide concentrations
[2] = 2nd of 3 copper concentrations (value not shown), 1st of four biocide concentrations
[3] = 2nd of 3 copper concentrations (value not shown), 4th of four biocide concentrations
[4] = 3rd of 3 copper concentrations (value not shown), 4th of four biocide concentrations
[5] = Gold section of Table 5, first of three gold concentrations (μM, value not given), biocide concentration 2 of 4
[6] = Gold section of Table 5, second of three gold concentrations (μM, value not given), biocide concentration 2 of 4
[7] = Gold section of Table 5, third of three gold concentrations (μM, value not given), biocide concentration 2 of 4
[8] = Silver 0.5 μM, 2nd of four biocide concentrations, E. coli
[9] = Silver 1.0 μM, 2nd of four biocide concentrations, E. coli
[10] = Silver 5.0 μM, 2nd of four biocide concentrations, E. coli
[11] = Gold 5 μM, biocide concentration 3 of 4, E. coli
[12] = Gold 5 μM, biocide concentration 4 of 4, E. coli
[13] = Gold 25 μM, biocide concentration 3 of 4, E. coli
[14] = Gold 25 μM, biocide concentration 4 of 4, E. coli
[15] = Silver 0.5 μM, 4th of four biocide concentrations, E. coli
[16] = Silver 1.0 μM, 4th of four biocide concentrations, E. coli
[17] = Silver 5.0 μM, 4th of four biocide concentrations, E. coli
[18] = […], biocide concentration 3 of 4, E. coli
[19] = […], biocide concentration 4 of 4, E. coli
[20] = 2nd of 3 copper concentrations (value not shown), 3rd of four biocide concentrations
[21] = Gold section of Table 5, first of three gold concentrations (μM, value not given), biocide concentration 4 of 4
[22] = Gold section of Table 5, second of three gold concentrations (μM, value not given), biocide concentration 4 of 4
[23] = Gold section of Table 5, third of three gold concentrations (μM, value not given), biocide concentration 4 of 4
[24] = Silver 0.5 μM, 3rd of four biocide concentrations, E. coli
[25] = Silver 1.0 μM, 3rd of four biocide concentrations, E. coli
[26] = Silver 5.0 μM, 3rd of four biocide concentrations, E. coli
[27] = Gold 50 μM, biocide concentration 4 of 4, E. coli
[28] = Silver 0.5 μM, biocide concentration 4 of 4
[29] = Silver 1.0 μM, biocide concentration 4 of 4
[30] = Silver 5.0 μM, biocide concentration 4 of 4

CN(C)S(=O)(=O)N(SC(F)(Cl)Cl)c1ccccc1 [dichlofluanid]
Tox: CDI (coefficient of drug interaction), copper mixed with biocide [1] | CDI (coefficient of drug interaction), copper mixed with biocide [2] | CDI (coefficient of drug interaction), copper mixed with biocide [3] | CDI (coefficient of drug interaction), copper mixed with biocide [4] | CDI (coefficient of drug interaction) [5] | CDI (coefficient of drug interaction) [6] | CDI (coefficient of drug interaction) [7] | CDI (coefficient of drug interaction), silver + biocide [8] | CDI (coefficient of drug interaction), silver + biocide (Silver 1.0 μM, 1st of four biocide concentrations, E. coli) | CDI (coefficient of drug interaction), silver + biocide [9] | CDI (coefficient of drug interaction), silver + biocide (Silver 5.0 μM, 1st of four biocide concentrations, E. coli) | CDI (coefficient of drug interaction), silver + biocide [10]

CCN(CC)C(=S)SSC(=S)N(CC)CC [disulfiram]
Tox: CDI (coefficient of drug interaction), copper mixed with biocide [3] | CDI (coefficient of drug interaction) [11] | CDI (coefficient of drug interaction) [12] | CDI (coefficient of drug interaction) [13] | CDI (coefficient of drug interaction) [14] | CDI (coefficient of drug interaction), silver + biocide [15] | CDI (coefficient of drug interaction), silver + biocide [16] | CDI (coefficient of drug interaction), silver + biocide [17] | CDI (coefficient of drug interaction) [18] | CDI (coefficient of drug interaction) [19]

CCCCCCCCCCCCNC(=N)N [dodine]
Tox: CDI (coefficient of drug interaction), copper mixed with biocide [1] | CDI (coefficient of drug interaction), copper mixed with biocide [20] | CDI (coefficient of drug interaction), copper mixed with biocide [3] | CDI (coefficient of drug interaction), copper mixed with biocide [4] | CDI (coefficient of drug interaction) [21] | CDI (coefficient of drug interaction) [22] | CDI (coefficient of drug interaction) [23] | CDI (coefficient of drug interaction), silver + biocide [24] | CDI (coefficient of drug interaction), silver + biocide [15] | CDI (coefficient of drug interaction), silver + biocide [25] | CDI (coefficient of drug interaction), silver + biocide [16] | CDI (coefficient of drug interaction), silver + biocide [26] | CDI (coefficient of drug interaction), silver + biocide [17]

CCn1cc(C(=O)O)c(=O)c2cc(F)c(N3CCNCC3)nc21 [enoxacin]
Tox: CDI (coefficient of drug interaction) (Gold 50 μM, biocide concentration 3 of 4, E. coli) | CDI (coefficient of drug interaction) [27]

O=C1OC(CN2CCOCC2)CN1/N=C/c1ccc([N+](=O)[O-])o1 (centres unmarked) [furaltadone]
Tox: CDI (coefficient of drug interaction) [27]

CCCCc1ccc(C(=O)O)nc1 [fusaric acid]
Tox: CDI (Copper 0.1 mM, biocide concentration 3 of 4) | CDI (Copper 0.1 mM, biocide concentration 4 of 4) | CDI (Copper 0.5 mM, biocide concentration 3 of 4) | CDI (Copper 0.5 mM, biocide concentration 4 of 4) | CDI (Copper 1.0 mM, biocide concentration 3 of 4) | CDI (Copper 1.0 mM, biocide concentration 4 of 4) | CDI (coefficient of drug interaction) [11] | CDI (coefficient of drug interaction) [12] | CDI (coefficient of drug interaction) [13] | CDI (coefficient of drug interaction) [14] | CDI (coefficient of drug interaction), silver + biocide [8] | CDI (coefficient of drug interaction), silver + biocide [24] | CDI (coefficient of drug interaction), silver + biocide [15] | CDI (coefficient of drug interaction), silver + biocide [9] | CDI (coefficient of drug interaction), silver + biocide [25] | CDI (coefficient of drug interaction), silver + biocide [16] | CDI (coefficient of drug interaction), silver + biocide [10] | CDI (coefficient of drug interaction), silver + biocide [26] | CDI (coefficient of drug interaction), silver + biocide [17] | CDI (coefficient of drug interaction) [18] | CDI (coefficient of drug interaction) [19]

O=C(O)c1cc(O)c(O)c(O)c1 [gallic acid]
Tox: CDI (coefficient of drug interaction) (Copper (mM), 1st of 3 copper concentrations (head line not shown), biocide concentration 4 of 4, E. coli) | CDI (coefficient of drug interaction) (Copper (mM), 2nd of 3 copper concentrations (head line not shown), biocide concentration 4 of 4, E. coli) | CDI (coefficient of drug interaction) (Copper (mM), 3rd of 3 copper concentrations (head line not shown), biocide concentration 4 of 4, E. coli) | CDI (coefficient of drug interaction), gold + biocide (first of 3 gold concentrations, biocide concentration 4 of 4) | CDI (coefficient of drug interaction), gold + biocide (second of 3 gold concentrations, biocide concentration 4 of 4) | CDI (coefficient of drug interaction), gold + biocide (third of 3 gold concentrations, biocide concentration 4 of 4) | CDI [28] | CDI [29] | CDI [30]

CN[C@@H]1[C@@H](O)[C@@H](O[C@@H]2[C@@H](O)[C@H](O[C@H]3O[C@H]([C@@H](C)O)[C@@H](O)[C@H](O)[C@H]3N)[C@@H](N)C[C@H]2N)OC[C@]1(C)O [geneticin (G418)]
0.71: CDI (coefficient of drug interaction), copper mixed with biocide (2nd of 3 copper concentrations (value not shown), 2nd of four biocide concentrations) | CDI (coefficient of drug interaction), copper mixed with biocide [20]
0.73: CDI (coefficient of drug interaction), copper mixed with biocide [2]
0.88: CDI (coefficient of drug interaction), copper mixed with biocide [1]
0.96: CDI (Silver 0.5 μM, biocide concentration 2 of 4)
0.54: CDI (coefficient of drug interaction), copper mixed with biocide (3rd of 3 copper concentrations (value not shown), 1st of four biocide concentrations)
Tox: CDI (coefficient of drug interaction), copper mixed with biocide [3] | CDI [28] | CDI [29] | CDI [30]
1.11: CDI (coefficient of drug interaction) [23]
0.82: CDI (Silver 1.0 μM, biocide concentration 2 of 4)
0.23: CDI (Silver 5.0 μM, biocide concentration 3 of 4)
0.87: CDI (coefficient of drug interaction), copper mixed with biocide (1st of 3 copper concentrations (value not shown), 2nd of four biocide concentrations)
0.31: CDI (Silver 1.0 μM, biocide concentration 3 of 4)
0.95: CDI (coefficient of drug interaction) [21]
0.94: CDI (Silver 1.0 μM, biocide concentration 1 of 4)
0.97: CDI (coefficient of drug interaction), copper mixed with biocide (1st of 3 copper concentrations (value not shown), 1st of four biocide concentrations)
0.76: CDI (Silver 0.5 μM, biocide concentration 3 of 4)
1.08: CDI (coefficient of drug interaction) (Gold section of Table 5, first of three gold concentrations (μM, value not given), biocide concentration 1 of 4)
1.00: CDI (coefficient of drug interaction) [5] | CDI (coefficient of drug interaction) (Gold section of Table 5, second of three gold concentrations (μM, value not given), biocide concentration 3 of 4)
0.48: CDI (coefficient of drug interaction), copper mixed with biocide (3rd of 3 copper concentrations (value not shown), 3rd of four biocide concentrations) | CDI (Silver 5.0 μM, biocide concentration 1 of 4)
0.44: CDI (coefficient of drug interaction), copper mixed with biocide [4]
0.50: CDI (coefficient of drug interaction), copper mixed with biocide (3rd of 3 copper concentrations (value not shown), 2nd of four biocide concentrations)
0.49: CDI (Silver 5.0 μM, biocide concentration 2 of 4)
1.02: CDI (coefficient of drug interaction) [22]
1.05: CDI (coefficient of drug interaction) (Gold section of Table 5, second of three gold concentrations (μM, value not given), biocide concentration 1 of 4) | CDI (coefficient of drug interaction) (Gold section of Table 5, third of three gold concentrations (μM, value not given), biocide concentration 1 of 4) | CDI (coefficient of drug interaction) (Gold section of Table 5, third of three gold concentrations (μM, value not given), biocide concentration 3 of 4)
1.03: CDI (coefficient of drug interaction) [6]
1.04: CDI (coefficient of drug interaction) [7] | CDI (Silver 0.5 μM, biocide concentration 1 of 4)
0.86: CDI (coefficient of drug interaction), copper mixed with biocide (1st of 3 copper concentrations (value not shown), 3rd of four biocide concentrations)
1.01: CDI (coefficient of drug interaction) (Gold section of Table 5, first of three gold concentrations (μM, value not given), biocide concentration 3 of 4)
